The target in test [1] is PKNB(M.tuberculosis) (Mycobacterium tuberculosis, UniProt P9WI81). Briefly: biochemical. To be noted: read-out: Percent Control. Also on record: KINOMEscan competition binding, DNA-tagged kinase against immobilised ligand, qPCR read-out.
Test [2] has as its target T1, DRAK1 (Homo sapiens, UniProt Q9UEE5).
T1 construct: gene STK17A
T1 sequence (Q9UEE5 1-414): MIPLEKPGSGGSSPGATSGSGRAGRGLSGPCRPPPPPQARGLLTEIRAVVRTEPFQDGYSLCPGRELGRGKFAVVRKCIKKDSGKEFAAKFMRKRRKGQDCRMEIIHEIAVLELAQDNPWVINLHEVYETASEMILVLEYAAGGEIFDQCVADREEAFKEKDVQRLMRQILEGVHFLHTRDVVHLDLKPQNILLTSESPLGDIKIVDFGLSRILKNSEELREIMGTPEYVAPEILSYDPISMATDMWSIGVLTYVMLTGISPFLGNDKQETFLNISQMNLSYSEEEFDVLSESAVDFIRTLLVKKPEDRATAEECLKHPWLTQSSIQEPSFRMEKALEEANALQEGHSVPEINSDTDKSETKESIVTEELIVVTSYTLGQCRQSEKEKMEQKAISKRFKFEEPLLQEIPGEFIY
Briefly: biochemical. Also on record: KINOMEscan competition binding, DNA-tagged kinase against immobilised ligand, qPCR read-out.

In test [3] the target is T2, CDC2L2 (Homo sapiens, UniProt Q9UQ88).
T2 construct: gene CDK11A
Briefly: biochemical. Also on record: KINOMEscan competition binding, DNA-tagged kinase against immobilised ligand, qPCR read-out. To be noted: read-out: Percent Control.

Test [4] addresses MYO3B (Homo sapiens, UniProt Q8WXR4). Briefly: biochemical. Also on record: KINOMEscan competition binding, DNA-tagged kinase against immobilised ligand, qPCR read-out. The conditions noted are these: read-out: Percent Control.
The target of test [5] is DCLK3 (Homo sapiens, UniProt Q9C098). Briefly: biochemical. Also on record: KINOMEscan competition binding, DNA-tagged kinase against immobilised ligand, qPCR read-out. To be noted: read-out: Percent Control.
The target of test [6] is CSNK2A1 (Homo sapiens, UniProt P68400). Briefly: biochemical. Also on record: KINOMEscan competition binding, DNA-tagged kinase against immobilised ligand, qPCR read-out. To be noted: read-out: Percent Control.
Test [7] addresses CHUK (Homo sapiens, UniProt O15111). Briefly: biochemical. Also on record: KINOMEscan competition binding, DNA-tagged kinase against immobilised ligand, qPCR read-out. To be noted: read-out: Percent Control.
Test [8] has as its target CIT (Homo sapiens, UniProt O14578). Briefly: biochemical. Also on record: KINOMEscan competition binding, DNA-tagged kinase against immobilised ligand, qPCR read-out. The conditions noted are these: read-out: Percent Control.
The target in test [9] is T3, PIM2 (Homo sapiens, UniProt Q9P1W9). Briefly: biochemical. Also on record: KINOMEscan competition binding, DNA-tagged kinase against immobilised ligand, qPCR read-out.
T3 sequence (Q9P1W9 whole entry): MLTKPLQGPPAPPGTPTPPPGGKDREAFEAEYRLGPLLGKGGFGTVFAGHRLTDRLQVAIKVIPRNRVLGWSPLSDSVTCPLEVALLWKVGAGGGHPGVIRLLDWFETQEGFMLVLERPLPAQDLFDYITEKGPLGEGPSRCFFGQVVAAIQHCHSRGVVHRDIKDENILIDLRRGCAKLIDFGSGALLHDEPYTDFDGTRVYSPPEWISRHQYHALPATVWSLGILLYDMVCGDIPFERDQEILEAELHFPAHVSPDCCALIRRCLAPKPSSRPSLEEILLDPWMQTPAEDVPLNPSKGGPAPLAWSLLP
Test [10] concerns the target T1, DRAK1. Briefly: biochemical. To be noted: read-out: Percent Control. Also on record: KINOMEscan competition binding, DNA-tagged kinase against immobilised ligand, qPCR read-out.
The target in test [11] is T3, PIM2. Briefly: biochemical. Also on record: KINOMEscan competition binding, DNA-tagged kinase against immobilised ligand, qPCR read-out. The conditions noted are these: read-out: Percent Control.
Test [12] addresses T4, TBK1 (TANK-binding kinase 1) (Homo sapiens, UniProt Q9UHD2).
T4 construct: full-length human TBK1, expressed in Sf9, His tag removed by TEV
Briefly: surface plasmon resonance (Biacore T200, steady-state affinity). In general terms: Surface plasmon resonance follows binding to a sensor surface in real time, without labels.

Chain of CIT (O14578 whole entry): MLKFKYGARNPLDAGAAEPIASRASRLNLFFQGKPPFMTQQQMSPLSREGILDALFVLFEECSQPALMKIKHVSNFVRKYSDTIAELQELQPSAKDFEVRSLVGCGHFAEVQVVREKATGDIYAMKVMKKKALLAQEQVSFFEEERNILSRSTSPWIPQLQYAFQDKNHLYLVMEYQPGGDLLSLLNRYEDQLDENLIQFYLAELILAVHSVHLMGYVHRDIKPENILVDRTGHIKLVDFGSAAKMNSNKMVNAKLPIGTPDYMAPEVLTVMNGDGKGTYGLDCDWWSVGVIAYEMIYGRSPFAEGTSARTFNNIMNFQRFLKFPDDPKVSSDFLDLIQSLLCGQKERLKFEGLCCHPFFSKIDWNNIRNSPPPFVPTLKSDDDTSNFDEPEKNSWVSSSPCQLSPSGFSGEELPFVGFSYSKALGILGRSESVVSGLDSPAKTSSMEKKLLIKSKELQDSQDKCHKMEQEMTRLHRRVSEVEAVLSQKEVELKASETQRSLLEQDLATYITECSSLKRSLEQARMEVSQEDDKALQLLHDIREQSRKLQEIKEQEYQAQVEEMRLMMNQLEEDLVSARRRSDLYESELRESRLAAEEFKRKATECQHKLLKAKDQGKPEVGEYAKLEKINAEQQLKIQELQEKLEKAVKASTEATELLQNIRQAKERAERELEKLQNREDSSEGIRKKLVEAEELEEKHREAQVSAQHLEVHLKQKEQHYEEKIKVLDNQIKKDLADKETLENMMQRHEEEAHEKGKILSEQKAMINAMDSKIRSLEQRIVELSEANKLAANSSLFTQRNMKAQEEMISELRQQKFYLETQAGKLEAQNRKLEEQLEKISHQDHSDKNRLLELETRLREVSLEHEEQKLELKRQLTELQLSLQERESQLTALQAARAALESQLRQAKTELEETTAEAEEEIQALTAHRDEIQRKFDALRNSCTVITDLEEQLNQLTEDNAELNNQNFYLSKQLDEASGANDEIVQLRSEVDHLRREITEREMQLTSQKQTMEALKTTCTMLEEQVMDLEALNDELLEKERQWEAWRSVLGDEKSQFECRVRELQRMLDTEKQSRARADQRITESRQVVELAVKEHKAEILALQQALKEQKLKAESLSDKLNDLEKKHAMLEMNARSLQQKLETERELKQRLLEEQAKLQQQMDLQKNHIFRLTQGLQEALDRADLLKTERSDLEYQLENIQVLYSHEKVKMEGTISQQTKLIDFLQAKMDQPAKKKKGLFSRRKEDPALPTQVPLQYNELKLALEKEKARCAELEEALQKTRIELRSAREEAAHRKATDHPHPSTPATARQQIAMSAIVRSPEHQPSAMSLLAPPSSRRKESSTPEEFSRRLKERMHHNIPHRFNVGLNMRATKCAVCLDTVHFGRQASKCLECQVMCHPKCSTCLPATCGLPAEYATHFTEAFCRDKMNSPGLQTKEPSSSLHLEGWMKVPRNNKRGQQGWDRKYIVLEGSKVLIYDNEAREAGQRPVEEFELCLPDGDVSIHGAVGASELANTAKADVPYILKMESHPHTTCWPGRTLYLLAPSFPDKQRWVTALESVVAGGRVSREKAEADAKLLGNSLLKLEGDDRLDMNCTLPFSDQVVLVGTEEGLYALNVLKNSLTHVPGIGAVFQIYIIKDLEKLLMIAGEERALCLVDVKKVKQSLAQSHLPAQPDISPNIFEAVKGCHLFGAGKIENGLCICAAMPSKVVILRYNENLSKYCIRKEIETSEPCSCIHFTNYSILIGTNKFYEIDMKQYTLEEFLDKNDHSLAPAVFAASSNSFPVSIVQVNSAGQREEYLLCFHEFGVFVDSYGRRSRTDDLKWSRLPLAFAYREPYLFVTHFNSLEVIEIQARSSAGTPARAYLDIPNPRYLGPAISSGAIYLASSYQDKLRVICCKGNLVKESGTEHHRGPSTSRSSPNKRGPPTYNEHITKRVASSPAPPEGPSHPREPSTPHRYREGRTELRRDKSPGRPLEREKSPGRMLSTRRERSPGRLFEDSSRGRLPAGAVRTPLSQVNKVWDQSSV
Chain of CHUK (O15111 whole entry): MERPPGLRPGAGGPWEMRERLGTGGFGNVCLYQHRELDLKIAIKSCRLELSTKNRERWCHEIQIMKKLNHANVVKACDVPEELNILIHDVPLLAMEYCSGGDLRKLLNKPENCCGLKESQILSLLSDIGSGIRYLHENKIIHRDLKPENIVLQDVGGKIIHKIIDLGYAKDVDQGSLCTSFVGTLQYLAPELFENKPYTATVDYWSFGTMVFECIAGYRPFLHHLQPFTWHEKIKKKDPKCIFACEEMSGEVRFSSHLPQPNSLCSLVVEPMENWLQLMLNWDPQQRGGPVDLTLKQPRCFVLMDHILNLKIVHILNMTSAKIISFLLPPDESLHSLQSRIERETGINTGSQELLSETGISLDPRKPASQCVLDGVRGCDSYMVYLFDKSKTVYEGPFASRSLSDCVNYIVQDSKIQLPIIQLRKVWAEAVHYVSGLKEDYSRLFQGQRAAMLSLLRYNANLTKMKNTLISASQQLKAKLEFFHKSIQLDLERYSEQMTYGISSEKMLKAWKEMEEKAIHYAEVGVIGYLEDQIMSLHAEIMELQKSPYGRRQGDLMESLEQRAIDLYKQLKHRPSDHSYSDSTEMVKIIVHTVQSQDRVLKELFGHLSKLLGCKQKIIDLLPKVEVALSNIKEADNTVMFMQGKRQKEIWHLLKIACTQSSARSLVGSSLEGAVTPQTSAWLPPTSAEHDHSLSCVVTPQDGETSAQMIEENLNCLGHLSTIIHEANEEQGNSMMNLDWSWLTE
Chain of MYO3B (Q8WXR4 whole entry): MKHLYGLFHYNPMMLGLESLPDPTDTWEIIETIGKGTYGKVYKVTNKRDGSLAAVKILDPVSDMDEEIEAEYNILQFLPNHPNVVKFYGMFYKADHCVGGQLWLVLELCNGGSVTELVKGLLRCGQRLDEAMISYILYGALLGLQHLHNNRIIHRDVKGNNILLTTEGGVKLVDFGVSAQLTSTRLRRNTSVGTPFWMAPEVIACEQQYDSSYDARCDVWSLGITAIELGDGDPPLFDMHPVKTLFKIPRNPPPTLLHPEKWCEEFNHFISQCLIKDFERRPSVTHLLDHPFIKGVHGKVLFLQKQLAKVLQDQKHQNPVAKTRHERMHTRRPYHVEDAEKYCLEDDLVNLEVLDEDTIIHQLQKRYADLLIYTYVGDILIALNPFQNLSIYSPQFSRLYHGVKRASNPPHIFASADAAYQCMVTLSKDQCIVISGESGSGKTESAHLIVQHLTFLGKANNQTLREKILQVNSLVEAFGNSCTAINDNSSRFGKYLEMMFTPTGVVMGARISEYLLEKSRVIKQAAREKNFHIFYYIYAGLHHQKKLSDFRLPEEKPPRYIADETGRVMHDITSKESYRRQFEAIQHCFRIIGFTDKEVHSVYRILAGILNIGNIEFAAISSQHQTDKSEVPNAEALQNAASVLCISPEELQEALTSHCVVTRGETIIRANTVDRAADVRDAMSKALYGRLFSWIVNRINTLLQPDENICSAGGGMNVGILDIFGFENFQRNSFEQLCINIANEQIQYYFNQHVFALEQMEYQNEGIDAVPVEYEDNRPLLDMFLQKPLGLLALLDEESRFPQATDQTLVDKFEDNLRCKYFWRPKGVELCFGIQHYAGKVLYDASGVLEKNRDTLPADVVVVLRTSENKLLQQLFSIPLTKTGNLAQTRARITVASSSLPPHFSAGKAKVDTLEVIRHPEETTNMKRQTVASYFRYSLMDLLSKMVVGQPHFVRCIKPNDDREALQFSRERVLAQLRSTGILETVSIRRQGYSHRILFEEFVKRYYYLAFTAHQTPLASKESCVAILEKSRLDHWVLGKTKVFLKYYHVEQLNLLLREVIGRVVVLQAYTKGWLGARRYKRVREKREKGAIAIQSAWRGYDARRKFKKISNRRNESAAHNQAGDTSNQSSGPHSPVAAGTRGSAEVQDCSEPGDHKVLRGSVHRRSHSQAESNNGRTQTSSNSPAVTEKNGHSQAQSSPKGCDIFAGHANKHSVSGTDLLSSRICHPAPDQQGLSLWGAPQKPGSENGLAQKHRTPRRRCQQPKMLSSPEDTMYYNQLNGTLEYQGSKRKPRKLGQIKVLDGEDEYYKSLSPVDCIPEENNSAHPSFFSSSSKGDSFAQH
Chain of PKNB(M.tuberculosis) (P9WI81 whole entry): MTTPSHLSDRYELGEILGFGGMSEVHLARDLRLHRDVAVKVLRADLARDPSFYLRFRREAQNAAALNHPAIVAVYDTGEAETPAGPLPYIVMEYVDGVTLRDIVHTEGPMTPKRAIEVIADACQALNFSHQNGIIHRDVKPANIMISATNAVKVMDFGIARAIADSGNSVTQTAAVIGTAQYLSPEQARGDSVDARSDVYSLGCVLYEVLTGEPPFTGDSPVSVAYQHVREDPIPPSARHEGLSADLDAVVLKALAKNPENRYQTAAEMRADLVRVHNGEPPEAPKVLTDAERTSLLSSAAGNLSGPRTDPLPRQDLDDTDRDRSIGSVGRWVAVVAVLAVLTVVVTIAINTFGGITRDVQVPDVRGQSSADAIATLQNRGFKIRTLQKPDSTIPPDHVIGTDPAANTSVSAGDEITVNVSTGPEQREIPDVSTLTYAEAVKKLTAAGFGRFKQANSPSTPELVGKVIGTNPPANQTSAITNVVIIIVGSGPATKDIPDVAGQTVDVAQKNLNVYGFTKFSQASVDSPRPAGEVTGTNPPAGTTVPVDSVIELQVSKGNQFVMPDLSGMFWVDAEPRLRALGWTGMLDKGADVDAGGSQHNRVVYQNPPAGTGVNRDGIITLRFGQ

In the case of `Oc1ccc(C2=Cc3ccc(O)cc3OC2)cc1` [compound 1, idronoxil], the remaining binding at 10 µM in [1] was 76%; in test [3], 69%; in test [4], 100%; in test [5], 92%; in [6], 49%; in test [7], 81%. Moreover, the remaining binding at 10 µM was 62% in test [8], 4.3% in test [10] and 2.6% in test [11]. Moreover, the results for the Kd in test [2], in test [9] and in test [12] were 1200 nM, 2300 nM and 39200 nM, respectively.

The Kd is a measure of binding affinity in units of concentration.

The record behind these values is PMC10507085, “Pharmacological inhibition of TBK1/IKKε blunts immunopathology in a murine model of SARS-CoV-2 infection” (Nature Communications, 2023).
